Measurements from the NIST ThermoML archive (doi:10.1016/j.fluid.2012.09.038).
± gives the expanded uncertainty stated by the source.

Assays:
[1] = refractive index (Na D-line) (dimensionless); details: 101.33 kPa, Liquid, Standard Abbe refractometry
[2] = 101.33 kPa, Liquid, Vibrating tube method

CC(=O)OCCC(C)C [3-methylbutyl ethanoate]
refractive index ([1]; 298.2 K): 1.3975 ± 0.0008
mass density ([2]; 298.2 K): 866.7 ± 0.2 kg/m3

CC(=O)CCC(C)C [5-methyl-2-hexanone]
refractive index ([1]; 293.2 K): 1.4049 ± 0.0008
mass density ([2]; 293.2 K): 887.9 ± 0.2 kg/m3

O [water]
refractive index ([1]; 298.2 K): 1.3324 ± 0.0008
